A short description of data set [1]: Lactone ring stability in PBS containing human serum albumin by HPLC. Format: in vitro ADME. The settings on record: PBS with 30 mg/ml HSA, 37° C., 1 μM. Here is the method: FIG. 13 depicts the improved stabilities of four novel homosilatecans of the current invention following incubation in PBS containing 30 mg/ml human serum albumin at 37° C. […] All the experiments of FIG. 14 were conducted in human plasma at 37° C. Plasma samples were continuously aerated by a stream of blood gas resulting in the maintenance of pH at values of 7.5±0.1.
(§1) HPLC solvents were from Fisher Scientific.
To study the stabilities of homosilatecans in PBS containing human serum albumin (HSA), the HSA was dissolved in PBS, pH 7.4 at the concentration of 30 mg/ml and incubated at 37° C. The pH was measured and adjusted to 7.4+/−0.5 using 0.1 M KOH or 0.1 M HCl. Incubation continued until pH stabilized within the target range. An aliquot of PBS/HSA was removed and placed in an autosampler vial and maintained at 37° C. for 10 min. An aliquot of the drug in DMSO was added to the sample resulting in a final drug concentration of 1 μM. The vial was quickly added to the HPLC autosampler maintained at 37° C. and aliquots were injected and analyzed by HPLC at different time points. The data analysis was as described above for the drug in PBS only samples.

Data set [2] can be described thus: Lactone ring stability in whole human blood by HPLC. The settings on record: for Percent Lactone in Human Blood after 3 Hours of Incubation: pH 7.4, 37° C. (Table 4); for % Lactone: whole human blood, 1 μM. Here is the method:
All experiments were conducted at pH 7.4 and 37° C.
as §1

Data set [3] in a line: Lactone ring stability in PBS suspensions of albumin-free red blood cells by HPLC. Format: in vitro ADME, human. The settings on record: albumin-free RBC in PBS (5±1)×10^6 cell/μL, 37° C. Here is the method: FIG. 15 depicts the stabilities of four novel homosilatecans of the current invention in PBS suspensions containing physiologically-relevant concentrations [(5±1)×10^6 cell/μL] of albumin-free red blood cells. Stability characteristics were determined at 37° C. using HPLC methods.
as §1
To study the stabilities of the novel homosilatecans in the presence of physiologically relevant concentrations of red blood cells (RBC), the following experiments were performed. Packed Red blood cells obtained from the Central Kentucky Red Cross and were counted using a Coulter Cell Counter. The number of cells was adjusted to 5×10^12 Cells/L using PBS, pH 7.4 and incubated at 37° C. for 30 min. […] RBCs were incubated at 37° C. for 30 min and the pH remeasured to ensure that it was within the same range as before the assays were started. […] Aliquots of drug in DMSO were added to RBC suspensions in PBS to result in final drug concentration of 1 μM. […] The sample was analyzed on HPLC as soon as possible.

On to `CCC1(O)CC(=O)OCc2c1cc1n(c2=O)Cc2c-1nc1ccc(N)cc1c2[Si](C)(C)C` (racemic) [DB-38, 5-Ethyl-1,4,5,13-tetrahydro-5-hydroxy-10-amino-12-trimethylsilyl-3H,15H-oxepino[3′,4′:6,7]indolizino[1,2-b]quinoline-3,15-dione], for which the “% Lactone” value in data set [1] (3 hours) is 81.4 ± 0.3%; in data set [1] (24 hours), 34.1 ± 2.2%; in data set [2] (3 hours incubation, pH 7.4, 37° C.), 56.4 ± 0.6%; in data set [3] (3 hours), 84.8 ± 1.5%; in data set [3] (24 hours) it was 39.4 ± 1.2%. In data set [2], the “Percent Lactone in Human Blood after 3 Hours of Incubation” value (from here on “Percent Lactone in Human Blood”) worked out at 56%.
Regarding `CCC1(O)CC(=O)OCc2c1cc1n(c2=O)Cc2c-1nc1ccccc1c2[Si](C)(C)C(C)(C)C` (racemic) [DB-81, 5-Ethyl-1,4,5,13-tetrahydro-5-hydroxy-12-tert-butyldimethylsilyl-3H,15H-oxepino[3′,4′:6,7]indolizino[1,2-b]quinoline-3,15-dione], the “% Lactone” value was 88.1 ± 0.2% in data set [1] (3 hours); 42.5 ± 1.6% in data set [1] (24 hours); 27.0 ± 2.3% in data set [2] (24 hours incubation, 37° C.); 92.0 ± 0.0% in data set [3] (3 hours); 55.8 ± 1.7% in data set [3] (24 hours). Further, the “Percent Lactone in Human Blood” value in data set [2] came to 87%.
`CCC1(O)CC(=O)OCc2c1cc1n(c2=O)Cc2c-1nc1ccc(N)cc1c2[Si](C)(C)C(C)(C)C` (racemic) [DB-90, 5-Ethyl-1,4,5,13-tetrahydro-5-hydroxy-10-amino-12-tert-butyldimethylsilyl-3H,15H-oxepino[3′,4′:6,7]indolizino[1,2-b]quinoline-3,15-dione]: the “% Lactone” value came to 86.8 ± 0.2% in data set [1] (3 hours); 42.0 ± 2.7% in data set [1] (24 hours); 24.6 ± 1.3% in data set [2] (24 hours incubation, 37° C.); 85.5 ± 0.4% in data set [3] (3 hours); 38.5 ± 1.4% in data set [3] (24 hours). Besides, the “Percent Lactone in Human Blood” value in data set [2] is listed as 85%.
Turning to `CCC1(O)CC(=O)OCc2c1cc1n(c2=O)Cc2c-1nc1ccc(O)cc1c2[Si](C)(C)C(C)(C)C` (racemic) [DB-91, 5-Ethyl-1,4,5,13-tetrahydro-5-hydroxy-10-hydroxy-12-tert-butyldimethylsilyl-3H,15H-oxepino[3′,4′:6,7]indolizino[1,2-b]quinoline-3,15-dione], the “% Lactone” value in data set [1] (3 hours) came to 82.9 ± 0.3%; in data set [1] (24 hours) it was 33.2 ± 3.0%; in data set [2] (24 hours incubation, 37° C.), 37.1 ± 1.8%; in data set [3] (3 hours) it was 88.5 ± 0.2%; in data set [3] (24 hours), 42.6 ± 2.6%. In addition, the “Percent Lactone in Human Blood” value in data set [2] worked out at 85%.

For the origin of these results see patent publication US7538220B2, “Intermediates in the preparation of homocamptothecin analogs” (University of Pittsburgh - of the Commonwealth System of …, priority 1999, dated 2009).
